Columns and labels:
[1] = system: RA synovial fibroblasts; experiment: Cytokine synthesis in RA synovial fibroblasts stimulated with tenascin-C, FBG or LPS; type: cell-based, human; details: RA synovial fibroblasts, 24 h
From the text: (§1) RA membrane cells (representing a mixed population of all synovial cell types) were isolated from synovial membranes obtained from patients undergoing joint replacement surgery as previously described (Brennan (1989)). RA synovial fibroblasts were isolated from the mixed population of RA membrane cells as previously described (Brennan (1989)). The study was approved by the local Trust ethics committee (Riverside NHS Research Committee), and waste tissue (synovium after joint replacement surgery) was obtained only after receiving signed informed consent from the patient and anonymyzing the tissue to protect patient identity.
Immediately after isolation, RA membrane cells and macrophages were cultured at 1×10^5 cells/well in RPMI 1640 containing 10% (v/v) FBS and 100 U/ml (Units/ml) penicillin/streptomycin in 96-well tissue culture plates for 24 hours before stimulation. Synovial fibroblasts (used only at either passage number 2 or 3) were cultured at 1×10^4 cells/well in DMEM containing 10% (v/v) FBS and 100 U/ml penicillin/streptomycin in 96-well tissue culture plates for 24 hours before stimulation.
(§2) Cells were incubated for 24 hours at 37° C. with the indicated doses of tenascin-C and recombinant tenascin-C fragments (1.0 μM-1.0 nM). Cells were also stimulated where indicated with LPS (1 ng/ml for human macrophages, 10 ng/ml for human fibroblasts, RA membrane cells and HEKs, 100 ng/ml for MEFS and BMDMs and 10 ng/ml for HEKS), PAM3 (10 ng/ml for human macrophages, human fibroblasts, and HEKs, 100 ng/ml for MEFs and BMDMs), murine IL-1 (5 ng/ml for MEFS) and murine TNF-α (100 ng/ml for MEFS). Unless specifically stated otherwise rough LPS was used for in vitro studies.
(§3) Supernatants were subsequently examined for the presence of the cytokines TNF-α, IL-6, and IL-8 by enzyme-linked immunosorbent assay (ELISA) according to the manufacturer's instructions. Absorbance was read on a spectrophotometric ELISA plate reader (Labsystems Multiscan Biochromic, Vantaa, Finland) and analyzed using the Ascent software program (Thermo Labsystems, Altrincham, UK).

[2] = system: synovial membranes from RA patients; experiment: Cytokine synthesis in RA synovial membrane cells stimulated with FBG; type: cell-based, human; details: FBG 1.0-0.01 μM, 24 h
From the text: as §1
Immediately after isolation, RA membrane cells and macrophages were cultured at 1×10^5 cells/well in RPMI 1640 containing 10% (v/v) FBS and 100 U/ml (Units/ml) penicillin/streptomycin in 96-well tissue culture plates for 24 hours before stimulation. […]
as §3

[3] = system: TLR2 and TLR4 null mice; experiment: Intra-articular injection of FBG in TLR2 and TLR4 null mice; type: in vivo; details: 1 μg FBG, 3 days
Method: Representative sections of the knee joint of TLR2 (a) and TLR4 (b) null mice 3 days after intra-articular injection of 1 μg FBG. Sections are stained with hemotoxylin and eosin. Magnification ×10 (n=5 mice per genotype). (c) Quantification of joint inflammation, bone erosion, cartilage surface erosion and chondrocyte death in the knee joints of TLR2 (white bars) and TLR4 (black bars) null mice 3 days after intra-articular injection of 1 μg FBG. Data represent the mean+/−SD (n=5 per genotype).
Homozygous TLR2 and TLR4 deficient mice on a C57BL/6 background (an inbred strain of mice with a black coat) were obtained from B&K Universal (Hull, UK) Hoshino (1999) and Takeuchi (1999). Homozygous MyD88 deficient mice on a C57BL/6 background were provided by the Sanger Institute (Cambridge, UK). Age matched congenic inbred wild type C57B/L6 mice were obtained from Charles River (Margate, UK). For isolation of mouse embryo fibroblasts one female aged 8-10 weeks was mated with two males aged 8-10 weeks. For isolation of bone marrow derived macrophages mice were female and between 10-12 weeks of age at the time of experimentation.
Coronal tissue sections (4 μm) were cut at 7 depths throughout the joint; 80 μm apart and stained with hematoxylin and eosin or Safranin-O to assess joint pathology. Histopathologic changes were scored using the following parameters as described in Van Lent (2006). […]

[4] = system: MyD88; experiment: FBG stimulation of RA synovial fibroblasts infected with adenovirus expressing dominant negative MyD88; type: cell-based, human; details: 1 μM FBG
From the text: Recombinant, replication-deficient adenoviral vectors encoding wild type MyD88 (AdMyD88wt), dominant-negative forms of MyD88 (AdMyD88dn) and the GFP control (AdGFP) were constructed in-house. A description of the synthesis of these viruses is in Andreakos (2004). All viruses used in this study are E1/E3 deleted, belong to the Ad5 serotype. Viruses were propagated in 293 human embryonic kidney cells, purified by ultracentrifugation through two cesium chloride gradients, and viral titers determined by plaque assay as previously described (Sacre (2007)).
For adenoviral gene transfer experiments, human RA synovial fibroblasts were incubated with adenoviral vectors at a multiplicity of infection of 100, washed after 2 hours, cultured in complete medium for 24 hours, then stimulated for 24 hours, after which time supernatants were collected.
as §3

[5] = system: TLR2; experiment: Cytokine synthesis in embryonic fibroblasts or macrophages from TLR2 deficient mice; type: cell-based
Method: MEFs express high levels of mRNA of all 9 murine TLRs and are specifically and highly responsive to TLR ligand activation. […] MEFs were isolated from d13 embryos harvested from age-matched, pregnant female wild type, TLR2, TLR4 and null mice (as described in Todaro (1963)). Fibroblasts were cultured at 2×10^4 cells/well in DMEM containing 10% (v/v) FBS and 100 U/ml penicillin/streptomycin in 96-well tissue culture plates for 24 hours before stimulation.
BMDMs were derived by aspirating the femurs of age matched female wild type, TLR2 and TLR4 null mice as described in Butler (1999)) and culturing the cells for 7 days in DMEM, 20% (v/v) FBS, 10 ml/L (v/v) antibiotic-antimycotic solution PSA, 50 μM β-Mercaptoethanol and 10 ng/ml M-CSF. Macrophages were then cultured at 1×10^5 cells/well in DMEM, 20% (v/v) FBS, 10 ml/L (v/v) antibiotic-antimycotic solution PSA, 50 μM β-Mercaptoethanol in 96-well tissue culture plates for 24 hours before stimulation.
as §2, §3

With “FBG: recombinant fibrinogen-like globe, 227 amino acid globular domain at the C terminal of tenascin-C” the IL-6 synthesis [1] was “to an equal extent to full-length tenascin-C”, the IL-8 synthesis [1] was “did not induce” and the “synthesis of IL-6, IL-8 and TNF-α” value [2] was “further enhanced”. The joint inflammation ([3]; TLR2 null mice) was “able to induce joint inflammation”, the joint inflammation ([3]; TLR4 null mice) was “not in TLR4 null mice” and the “FBG induction of IL-6” value [4] was “abolished”. The cytokine synthesis [5] was “unaffected”.

Reference: patent US20170009228A1, “BIOLOGICAL MATERIALS AND THERAPEUTIC USES THEREOF” (IMPERIAL INNOVATIONS LIMITED, priority 2014, published 2017)
